Source: patent publication EP2123249A1, “OIL SOLUTION, AND LUBRICANT, MOISTURE-RETAINING AGENT AND PREPARATION FOR EXTERNAL APPLICATION CONTAINING THE SAME” (priority 2007, dated 2008)
Structures can show the parent of a compound that is named as a salt.

Legend:
[1] = Viscosity, Brookfield viscometer DV-II+ (Spindle No. 2, 12 rpm, 25°C); assay type: physicochemical
Method: The viscosity of the oil agent of the present invention is, when used in external preparations such as moisturizers and cosmetic materials, preferably 5-200 (mPa·s, 25°C), and more preferably 8-100 (mPa·s, 25°C) . When the viscosity is within the above range, good feeling of use without stickiness can be obtained upon application to skin, etc. In addition, when the oil agent is used in lubricating agents, the viscosity is preferably 50-200 (mPa·s, 25°C) , and more preferably 60-180 (mPa·s, 25°C). When the viscosity is within this range, appropriate lubricating property and workability can be obtained. In this specification, "viscosity" refers to a value of viscosity measured using a Brookfield viscometer DV-II+ (Spindle No. 2, 12 rpm, 25°C).
In these examples, viscosity was measured using a Brookfield viscometer DV-II+ (Spindle No. 2, 12 rpm, 25°C).

[2] = Feeling of use, graded by viscosity; assay type: physicochemical; conditions: class by viscosity at 25°C
[3] = Water solubility evaluation; assay type: physicochemical; conditions: in water
[4] = Oil solubility evaluation in KAK99 (isononyl isononanoate)

Viscosity [1] | Feeling of use [2] | Oil solubility [4] | SMILES | Water solubility [3]
45 mPa·s | slightly light | △ (Dissolved in KAK99 up to 5 % by mass) | CCOCCOCCOC(=O)CC(O)C(=O)OCCOCCOCC (stereo not drawn) [Example 2, dicarbitol malate] | ○ (Dissolved in water up to 10 % by mass)
20 mPa·s | light | – | CCOCCOCCOC(=O)CCCCC(=O)OCCOCCOCC [Example 3, dicarbitol adipate] | –
207 mPa·s | slightly heavy | – | CCOCCOCCOC(=O)C(O)C(O)C(=O)OCCOCCOCC (stereo not drawn) [Example 4, dicarbitol tartrate] | –

Continued, molecule first:

SMILES | Viscosity [1] | Feeling of use [2] | Oil solubility [4] | Water solubility [3]
CCOCCOCCOC(=O)CC(C)CC(C)(C)C (stereo not drawn) [Comparative example 1, carbitol isononanoate, reference compound] | 5 mPa·s | light | – | –
CCOCCOCCOC(=O)CCC(=O)OCCOCCOCC [Example 1, dicarbitol succinate] | 12.5 mPa·s | light | – | –
CCOCCOCCOCCOC(=O)CCC(=O)OCCOCCOCCOCC [Example 5, di(triethylene glycol monoethyl ether) succinate] | 32.5 mPa·s | slightly light | △ (Dissolved in KAK99 up to 5 % by mass) | –
CCOCCOC(=O)CCC(=O)OCCOCC [Example 6, di(monoethylene glycol monoethyl ether) succinate] | 10.0 mPa·s | light | – | △ (Dissolved in water up to 5 % by mass)
